Laboratory results as given in US6596308B2, “Controlled release pharmaceutical composition” (Kos Pharmaceuticals, Incorporated, priority 2001, dated 2003).

Assay: dissolution release of hard shell capsule formulations, USP Basket Method (Apparatus 1)

time in which lovastatin was completely released (in vitro release, FIG. 2) (Precirol ATO5 capsule systems containing the fast hydrating Methocel polymers, water with 1% sodium dodecyl sulfate, 37° C., 100 RPM): 4 h
period over which sustained release of lovastatin was obtained (in vitro release, FIG. 2) (Precirol ATO5 capsule systems containing the non-hydrating Ethocel, water with 1% sodium dodecyl sulfate, 37° C., 100 RPM): 24 h
rank order of release rate by cellulose polymer (FIG. 1) (lovastatin, Compritol 888 capsule system, fastest hydrating polymers gave faster release): Methocel K>Methocel E>Ethocel
SMILES: CC[C@H](C)C(=O)O[C@H]1C[C@@H](C)C=C2C=C[C@H](C)[C@H](CC[C@@H]3C[C@@H](O)CC(=O)O3)[C@H]21 [lovastatin]
release of lovastatin by type of cellulosic polymer, compritol formulation (lovastatin, compritol, Methocel K100M vs Ethocel P20): released considerably faster from a formulation of Methocel K100M than Ethocel P20
release of lovastatin by type of cellulosic polymer, precirol formulation (lovastatin/precirol, Methocel K100M vs Ethocel P20): faster when the formulation contains Methocel K100M than Ethocel P20
release of lovastatin by type of high melting fatty acid ester (same cellulose (methocel) component, prolonged period of about 24 hours): fastest with Precirol AT05, slowest with Compritol 888
